From US12544371B2, “Methods and compositions for treating acute lung injury and acute respiratory distress syndrome” (CalciMedica, Inc., priority 2020, dated 2026)
Where two headings read alike, the source gives them in different places.

Tests used:
[1] = test system: IL-2 release by human CD4+ T cells; experiment: IL-2 release by human CD4+ T cells, isolated cell assay; type: cell-based; details: SEM (n), read-out: Compound 1 IC50, IL-2 release by human CD4+ T cells
Text: (§1) CRAC channels may play a proximal role in a calcium-calcineurin pathway leading to cytokine release in immune cells.

human blood and plasma = experiment: Hemolysis testing
Text: Hemolysis testing concluded that Compound 1 was compatible with human plasma and non-hemolytic in human blood.

[2] = Repeat-dose toxicity study in rats; type: in vivo; details: rat
[3] = Long-term extension study of SAD and MAD subjects; type: in vivo, human
Text: Subjects in Groups 4 and 5 of the SAD study and Groups 1 and 2 of the MAD study who received Compound 1 were followed for 1 year in a long-term extension study to assess for adverse events and serious adverse events. In addition, PK levels were drawn in all 4 groups on Day 270 to further characterize the terminal phase and the prolonged period of residual drug level.

[4] = test system: human peripheral blood lymphocytes; experiment: In vitro micronucleus assay; type: cell-based
[5] = test system: IL-1β released from human PBMCs; experiment: Cytokine released from human PBMCs: IL-1β; type: cell-based
Text: as §1

[6] = test system: TNFα released from human PBMCs; experiment: Cytokine released from human PBMCs: TNFα; type: cell-based
Text: as §1

[7] = test system: bacterial reverse mutation; experiment: Ames bacterial reverse mutation assay; type: cell-based; details: in vitro
[8] = Mouse caerulein-induced pancreatitis model; type: in vivo; details: single IP dose
Text: Potential efficacy of Compound 1 in treating acute lung injury was established in three diverse in vivo models of AP that cause both pancreatic damage and lung inflammation (TLCS-induced, FAEE-induced, and caerulein-induced acute pancreatitis models).

[9] = Rat model of acute pancreatitis (caerulein-induced), IV infusion; type: in vivo
[10] = Phase 1 multiple ascending dose study (Compound 1 Test 102), healthy subjects; details: for AUC(0-t) / Cmax: human, plasma, intravenous
Experimental: One of the subjects received placebo at the maximum dose volume of emulsion, 1.3 mL/kg, for 7 days, whereas all others were dosed on a weight-based adjustment of dose volume.

[11] = In vivo micronucleus study (bone marrow micronucleus and liver Comet assays); details: rats
[12] = Phase 1 single ascending dose study (Compound 1 Test 101), healthy subjects; type: in vivo, human
Text: Two Phase 1 studies of N-(5-(6-Chloro-2,2-difluorobenzo[d][1,3]dioxol-5-yl)pyrazin-2-yl)-2-fluoro-6-methylbenzamide (Compound 1) have been conducted in healthy subjects: a single ascending dose (SAD) study (Compound 1 Test 101) and a multiple ascending dose (MAD) study (Compound 1 Test 102). In Compound 1 Test 101 (Table 1), 32 healthy subjects were enrolled in five groups and randomized in a 3:1 ratio to receive a single dose of active versus placebo. The dose levels for each group are noted in Table 1. The dose volume of the emulsion was fixed at 1.3 mL/kg for all subjects in the SAD study groups, and an injectable emulsion of Compound 1 or placebo was administered via a 4-hour IV infusion.
Plasma concentrations of compound rise steadily during the 4-hour infusion, with Tmax achieved at the end of infusion (4 hours). After the end of infusion, there is a rapid and prominent distribution phase followed by a prolonged period of residual drug levels. The terminal elimination phase has not yet been fully characterized as it appears to be much longer than was anticipated based on pre-clinical PK data in mouse, rat, dog and monkey. Plasma concentrations during the terminal phase are approximately 5% of Cmax values and, as indicated above, to date there have been no clinically significant AEs reported during this phase. Plasma exposures, defined by AUC0-24 h, appear to be dose-proportional and reached a maximum of 6710 ng*h/mL in Group 5, which is 4.3-fold below the mean AUC24 h in monkey at the NOAEL (29,000 ng*hr/mL).

[13] = test system: CRAC channel-dependent stimulated IL-2 secretion; experiment: Ex vivo whole blood PD assay of CRAC channel-dependent IL-2 release (Test 202); type: in vivo, human
Experimental: In Compound 1 Test 202, a pharmacodynamic and pharmacokinetic study of Compound 1 in patients with acute pancreatitis, patients with AP (regardless of the presence of SIRS and/or hypoxemia) were administered a single IV infusion of 2.08 mg/kg of an injectable emulsion of Compound 1 and blood, plasma and serum were collected for analysis. It was planned to initially enroll 5 patients and then to enroll an additional 4 patients as needed. Ultimately, 7 patients were screened for the study, and all 7 enrolled in and completed the study. On Days 1 and 2, blood and plasma samples for PD and PK analyses, respectively, were obtained 30 minutes after completing the administration of Compound 1 and 24 hours from the start of the administration of Compound 1. In patients hospitalized at Day 5 and 10, blood and plasma samples were obtained; if discharged earlier, samples were obtained at the time of discharge. After discharge, patients returned to the hospital on Day 30 to provide final blood and plasma samples.
An intravenous formulation of a CRAC inhibitor comprising Compound 1 allowed rapid delivery and onset of action when a single 2.08 mg/kg dose was given in human patients with acute pancreatitis (AP). Ex vivo whole blood pharmacodynamic (PD) assays of CRAC channel-dependent IL-2 release were performed.

Compound: Cc1cccc(F)c1C(=O)Nc1cnc(-c2cc3c(cc2Cl)OC(F)(F)O3)cn1 [Compound 1, N-(5-(6-Chloro-2,2-difluorobenzo[d][1,3]dioxol-5-yl)pyrazin-2-yl)-2-fluoro-6-methylbenzamide]
- IC50 [1]: 4 ± 0.5 nM
- compatibility with human plasma (human blood and plasma): compatible
- hemolysis in human blood (human blood and plasma): non-hemolytic
- NOAEL ([2]; in vivo, repeat-dose, rats, read-out: no observable adverse effect level (NOAEL)): 25 mg/kg/day
- local irritation at the injection site ([2]; repeat-dose toxicity study): no evidence of compound-related or vehicle-related local irritation
- number of mild AEs in the extension study ([3]; 365 days): 1
- serious adverse events and adverse events rated moderate or severe, long-term follow-up ([3]; healthy subjects followed for 365 days): safe and no serious adverse events and no adverse events rated moderate or severe in intensity and no SAEs or AEs rated moderate or severe in intensity
- micronucleus assay result [4]: weakly positive/equivocal
- IC50 ([5]; Homo sapiens, PBMC, mean of replicates, read-out: Mean IC50, IL-1β released from human PBMCs): 240 nM
- IC50 ([5]; Homo sapiens, PBMC, single replicates, read-out: Replicate IC50 values, IL-1β released from human PBMCs): 264 nM
- IC50 ([5]; single replicates, read-out: Replicate IC50 values, IL-1β released from human PBMCs): 217 nM
- IC50 ([6]; Homo sapiens, PBMC, mean of replicates, read-out: Mean IC50, TNFα released from human PBMCs): 225 nM
- IC50 ([6]; Homo sapiens, PBMC, single replicates, read-out: Replicate IC50 values, TNFα released from human PBMCs): 278 nM
- IC50 ([6]; single replicates, read-out: Replicate IC50 values, TNFα released from human PBMCs): 173 nM
- Ames bacterial reverse mutation assay result [7]: negative
- lung myeloperoxidase; pancreas trypsin activity, myeloperoxidase activity and histopathological indices [8]: markedly reduced
- lung myeloperoxidase activity (neutrophil infiltration) [9]: decrease
- mRNA levels of the cytokines TNFα and IL-6 (lung) [9]: decrease
- Cmax accumulation ([10]; MAD Group 1, 0.5 mg/kg): 1.6 fold
- increase in systemic exposure (AUC24 h), Day 7 compared to Day 1 ([10]; MAD Group 1, 0.5 mg/kg): 2.6 fold
- margin of Day 7 AUC24 h below NOAEL AUC24 h in monkey ([10]; MAD Group 1, 0.5 mg/kg): 9.1 fold
- Cmax accumulation ([10]; MAD Group 2, 1.0 mg/kg): 1.4 fold
- increase in AUC24 h, Day 7 compared to Day 1 ([10]; MAD Group 2, 1.0 mg/kg): 2.6 fold
- margin of Day 7 AUC24 h below NOAEL AUC24 h in monkey ([10]; MAD Group 2, 1.0 mg/kg): 4.2 fold
- clinically significant laboratory abnormalities ([10]; MAD group 1): No laboratory abnormalities
- SAEs and AEs classified as moderate or severe ([10]; MAD group 1, 0.50 mg/kg daily for 7 days): no SAEs and no AEs classified as moderate or severe in intensity
- number of clinical AEs (all mild) ([10]; MAD group 1, eight subjects incl. placebo): 15
- clinically significant laboratory abnormalities ([10]; MAD group 2): No laboratory abnormalities
- SAEs and AEs classified as moderate or severe ([10]; MAD group 2, 1.0 mg/kg daily for 7 days): no SAEs and no AEs classified as moderate or severe in intensity
- number of AEs (all mild) ([10]; MAD group 2, eight subjects incl. placebo): three
- cardiac function: heart rate, QTcF, B-type natriuretic peptide ([10]; MAD, both groups): no evidence of any sustained treatment related effect
- systolic or diastolic blood pressure ([10]; MAD, both groups): no evidence of any sustained treatment related increase
- AUC(0-t) ([10]; 0.5 mg/kg): 3190 ng·h/mL
- Cmax ([10]; 0.5 mg/kg): 363 ng/mL
- AUC(0-t) ([10]; 1 mg/kg): 6830 ng·h/mL
- Cmax ([10]; 1 mg/kg): 637 ng/mL
- DNA reactivity, bone marrow micronucleus and liver Comet assays [11]: no evidence of DNA reactivity
- margin of AUC0-24 h below mean AUC24 h in monkey at the NOAEL ([12]; SAD Group 5): 4.3 fold
- Tmax ([12]; human, in vivo): 4 h
- cardiac function: heart rate, QTcF, cardiac troponin-T, B-type natriuretic peptide ([12]; human, in vivo): no evidence of any treatment related effect
- clinically significant laboratory abnormalities ([12]; human, in vivo): No laboratory abnormalities
- distribution compartments, non-compartmental PK analysis ([12]; human, in vivo): three compartments
- dose proportionality of plasma exposure (AUC0-24 h) ([12]; human, in vivo): dose-proportional
- number of clinical AEs (all mild) ([12]; human, in vivo): three
- plasma concentrations during the terminal phase relative to Cmax ([12]; human, in vivo): approximately 5 % of Cmax
- systolic or diastolic blood pressure ([12]; human, in vivo): no evidence of any sustained treatment related increase
- AUC(0-t) ([12]; human, in vivo, 2.1 mg/kg): 6710 ng·h/mL
- inhibition at 2.08 mg/kg ([13]; Homo sapiens, at or near Cmax, single 2.08 mg/kg IV): ~57%
- time over which the inhibitory effect dissipated ([13]; after Cmax): 1 to 2 days
- recovery of IL-2 production ([13]; after the end of the infusion): 24 h
- decrease of IL-2 production ([13]; at the end of the infusion): > 50%
- onset of action, IL-2 release inhibition ([13]; peak at the end of a 4-hour infusion): rapid onset of action
